Assay results reported in US20250057793A1, “BENZOIC ACID SALTS FOR TREATMENT OF NERVOUS SYSTEM INJURIES AND DISORDERS” (The United States Government as represented by the …, priority 2021, published 2025).

Key:
[1] = if consumed in excess; cited from earlier work
[2] = tested on: LPS-stimulated microglia; settings: cited from earlier work
[3] = mice treated with cinnamon orally; cited from earlier work
[4] = tested on: Huntington pathology in mice; settings: oral, 50 mg/kg body wt/d; cited from earlier work
[5] = tested on: TBI mice; experiment: Synapse maturation markers (PSD-95, NR2A, GluR1) in brain of TBI mice; type: in vivo, mouse; settings: 21 days post-injury, 50 mg/kg/day oral gavage
Procedure: FIGS. 1lA-11H. Restoration of PSD-95, NR2A and GluR1 in the hippocampus of TBI mice by oral administration of GTB. […] Twenty-one days after CCI injury, brain sections were double-labeled for NeuN and PSD-95 (FIG. 11A, control; FIG. 111B, CCI; FIG. 11C, CCI+GTB; FIG. 11D, CCI+Vehicle). Results represent analysis of one section of each of six mice per group. […] FIG. 11E. Actin was run as a loading control. […] Data are expressed as mean+SD. Statistical analyses were performed with one way ANOVA.

SMILES: O=C([O-])c1ccccc1.[Na+] [NaB, Sodium benzoate]
- excretion [1]: secreted through the urine
- level of TLR4 ([2]; LPS-stimulated microglia): has no effect
- LPS-induced expression of iNOS and proinflammatory cytokines ([2]; microglia): inhibits
- p21ras activation ([2]; microglial cells): suppression
- presence of NaB in the brain [3]: detected in the brain

SMILES: O=C(OCC(COC(=O)c1ccccc1)OC(=O)c1ccccc1)c1ccccc1 [GTB, Glyceryl Tribenzoate]
- Huntington pathology [4]: alleviates
- level of PSD-95 ([5]; brain (cortex, hippocampus)): upregulated
- level of GluR1 ([5]; hippocampus): increased
- level of NR2A ([5]; hippocampus): increased
